{"source": "patent US20230057984A1", "about": "“NORMALIZATION OF CULTURE OF CORNEAL ENDOTHELIAL CELLS” (KYOTO PREFECTURAL PUBLIC UNIVERSITY CORPORATION, priority 2011, published 2023)", "test_system": "Human corneal endothelial cells", "assay": "Immunostaining and Western blot of Na+/K+-ATPase and ZO-1 in human corneal endothelial cells with SB431542 (FIG. 9A A, B)", "format": "cell-based", "conditions": "HCEC", "procedure": "For tissue staining examination, cultured MCECs or HCECs were put into Lab-Tek™ Chamber Slides™ (NUNC A/S, Roskilde, Denmark), fixed with 4% formaldehyde for 10 minutes at a room temperature (RT), and incubated for 30 minutes with 1% bovine serum albumin (BSA). Specifically, cultured MCECs or HCECs on the Lab-Tek™ Chamber Slides™ (NUNCA/S, Roskilde, Denmark) were fixed at a room temperature for 10 minutes in 4% formaldehyde, followed by incubation for 30 minutes together with 1% bovine serum albumin (BSA). In order to examine the phenotype of CEC, immunohistochemical analysis was directed to a protein associated with tight junction, ZO-1 (Zymed Laboratories, Inc., South San Francisco, Calif.), a protein associated with the pumping function, Na^+/K^+-ATPase (Upstate Biotec, Inc., Lake Placid, N.Y.), fibronectin (BD, Franklin Lakes, N.J.), and actine. As markers associated with the function of CEC, ZO-1 and Na^+/K^+-ATPase were used; fibronectin and type 1 collagen were used to evaluate the change in a fibroblastic manner; and staining of actine was used to evaluate the phenotype of the cells. Staining of ZO-1, Na^+/K^+-ATPase, type 1 collagen and fibronectin was each performed using 1:200 dilution of ZO-1 polyclonal antibody, Na^+/K^+-ATPase monoclonal antibody, and fibronectin monoclonal antibody. As to secondary antibody, 1:2000 dilution of Alexa Fluor (registered trademark) 488 label or Alexa Fluor (registered trademark) 594 label goat antimouse IgG (Life Technologies) was used. Staining of actine was performed using 1:400 dilution of Alexa Fluor (registered trademark) 488 label phalloidin (Life Technologies). […] Next, the slides were observed through a fluorescence microscope (TCS SP2 AOBS; Leica Microsystems, Welzlar, Germany).\nNext, reaction was allowed for 1 hour at a room temperature with ALEXA FLUOR 488 (INVITROGEN (catalog number: A21206)) and ALEXA FLUOR 594 (INVITROGEN (catalog number: A21203)), diluted with TBS-T by 1,000 fold. […] After washing, bands were detected using an ECL-ADVAVCE Western Blotting Detection Kit (GE healthcare Japan (catalog number: RPN2135V)). […]", "data": [{"smiles": "NC(=O)c1ccc(-c2nc(-c3ccc4c(c3)OCO4)c(-c3ccccn3)[nH]2)cc1", "note": "[SB431542]", "values": [{"measurement": "expression of Na+/K+-ATPase and ZO-1 (immunostaining)", "setting": "1 μM SB431542, in normal culture medium only a subpopulation of cells", "value": "expression was recognized in all the cells"}, {"measurement": "intracellular localization of Na+/K+-ATPase and ZO-1", "setting": "SB431542", "value": "allows for the intracellular localization of Na^+/K^+-ATPase and ZO-1 in a cell membrane"}, {"measurement": "protein expression of Na+/K+-ATPase and ZO-1 (Western blot)", "setting": "SB431542 0.1 μM, 1 μM, 10 μM", "value": "makes it possible to maintain the protein expression thereof"}]}]}
